B1: 5F11: fully human anti-CD30 monoclonal antibody; VH SEQ ID NO: 10, VL SEQ ID NO: 12; VH 4-34 and VK L15 (antibody, chains of the INN, looked up, V domains shown)
VH: QVQLQQWGAGLLKPSETLSLTCAVYGGSFSAYYWSWIRQPPGKGLEWIGDINHGGGTNYNPSLKSRVTISVDTSKNQFSLKLNSVTAADTAVYYCASLTAYWGQGSLVTVSS
VL: DIQMTQSPTSLSASVGDRVTITCRASQGISSWLTWYQQKPEKAPKSLIYAASSLQSGVPSRFSGSGSGTDFTLTISSLQPEDFATYYCQQYDSYPITFGQGTRLEIK
notes: fully human anti-CD30 monoclonal antibody; VH 4-34 and VK L15

Experiments:
[1] = guidance for hydrocortisone equivalents; actual potency may vary slightly; cited from earlier work
[2] = tested on: ALCL and various HD-derived cell lines; settings: in vitro and in vivo; Borchmann et al., Blood 2003; cited from earlier work
[3] = tested on: Hodgkin's Disease (HD), CD30 positive lymphoma; assay: Combination therapy of anti-CD30 antibody and glucocorticosteroid in patients with Hodgkin's Disease; assay type: in vivo, human
Description: The patient, diagnosed with HD, received 5 mg/kg anti-CD30 antibody 5F11 by i.v. infusion once per day per week for 3 weeks. The week after completing antibody therapy (i.e., fourth week from start of therapy), the patient received 40 mg oral dexamethasone once per day for 2 days; one month later the patient received another 40 mg oral dexamethasone once per day for 4 days; two weeks later the patient received a third regimen of 40 mg oral dexamethasone once per day for 4 days.
Patient 2, diagnosed with HD, received 15 mg/kg anti-CD30 antibody 5F11 by i.v. infusion once per day per week for 3 weeks. At the start of week 3 of antibody therapy, the patient received one dose of 50 mg oral dexamethasone. After completion of antibody therapy (i.e., at the beginning of week four following the start of therapy), the patient received one dose of 100 mg oral prednisolone.
Patient 4, diagnosed with HD, received 1 mg/kg anti-CD30 antibody […] by i.v. infusion once per day per week for 3 weeks. On the second day of week 1 after beginning therapy, the patient received 40 mg oral dexamethasone once per day for 4 days, followed by no steroid therapy for 10 days. Thus, a dexamethasone cycle was completed over a 14 day period. For this patient, 8 cycles of dexamethasone therapy were completed over a period of 4 months.

[4] = tested on: T cell lymphoma, CD30 positive lymphoma; assay: Combination therapy of anti-CD30 antibody and glucocorticosteroid in a patient with T cell lymphoma; assay type: in vivo, human; settings: Patient 3, T cell lymphoma; 40 mg oral dexamethasone daily for 4 days, then 50 mg oral prednisolone daily for 20 days; 15 mg/kg 5F11 i.v. once per week for 3 weeks from second week
Description: Patient 3, diagnosed with T cell lymphoma, received 40 mg oral dexamethasone once per day for 4 days. On day 5, dexamethasone treatment ceased and 50 mg oral prednisolone was administered once per day for 20 days. At the beginning of the second week of steroid therapy, antibody therapy was initiated by administering 15 mg/kg anti-CD30 antibody 5F11 by i.v. infusion once per day per week for 3 weeks.

Molecule | Relative potency in mg to hydrocortisone [1] | further results
C[C@]12CCC(=O)C=C1CC[C@@H]1[C@@H]2C(=O)C[C@@]2(C)[C@H]1CC[C@]2(O)C(=O)CO [Cortisone] | 0.8 | –
C[C@]12CCC(=O)C=C1CC[C@@H]1[C@@H]2[C@@H](O)C[C@@]2(C)[C@H]1CC[C@]2(O)C(=O)CO [Hydrocortisone] | 1 | –
C[C@]12C=CC(=O)C=C1CC[C@H]1[C@@H]3C[C@@H](O)[C@](O)(C(=O)CO)[C@@]3(C)C[C@H](O)[C@@]12F [Triamcinolone] | 5 | –
C[C@]12CCC(=O)C=C1CC[C@@H]1[C@@H]2[C@@H](O)C[C@@]2(C)[C@H]1CC[C@]2(O)C(=O)CO [Cortisol] | 1.25 | –
C[C@]12C=CC(=O)C=C1CC[C@@H]1[C@@H]2[C@@H](O)C[C@@]2(C)[C@H]1CC[C@]2(O)C(=O)CO [Prednisolone] | 4 | –
B1 | – | efficacy against ALCL and various HD-derived cell lines [2]: shown efficacy; clinical response ([3]; Patient 1, HD, 5 mg/kg 5F11 i.v. once per week for 3 weeks, then 40 mg oral dexamethasone once per day for 2 days, 4 days and 4 days (three regimens)): partial response; clinical response ([3]; Patient 2, HD, 15 mg/kg 5F11 i.v. once per week for 3 weeks, one dose 50 mg oral dexamethasone at week 3, one dose 100 mg oral prednisolone at week 4): partial response, which improved to complete a response; clinical response ([3]; Patient 4, HD, 1 mg/kg antibody i.v. once per week for 3 weeks, 8 cycles of 40 mg oral dexamethasone daily for 4 days per 14 days over 4 months): partial response; clinical response [4]: complete response

From US20090214544A1, “Method of treating cd30 positive lymphomas” (MEDAREX, priority 2005, published 2009)
